# In PubChem BioAssay AID2060490 (Molecular Pharmacology Branch, DTP, NCI, 2025):
# Test system: 885512-296-R-J2-PDC complex spheroid viability
# Assay: Anticancer human tumor 885512-296-R-J2-PDC patient-derived breast carcinoma cell line growth inhibition [GQUAD]
# Conditions: for IC50: curve of first compound; for viability, T/C: stronger effect = lower value
# Procedure, shortened: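 Multi-cell-type spheroids of tumor cells with HUVEC and mesenchymal stem cells, treated with drug combinations. Concentrations descend in half-log steps from near clinical Cmax, or from 10 microM where Cmax is unknown; viability read-out.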
# [1] = second compound 0.0316 µM, first compound 0.0316 µM
# [2] = second compound 0.0316 µM, first compound 0.1 µM
# [3] = second compound 0.0316 µM, first compound 0.316 µM
# [4] = second compound 0.0316 µM, first compound 1 µM
# [5] = second compound 0.0316 µM, first compound 3.16 µM
# [6] = second compound 0.0316 µM, first compound 10 µM
# [7] = second compound 0.1 µM, first compound 0.0316 µM
# [8] = second compound 0.1 µM, first compound 0.1 µM
# [9] = second compound 0.1 µM, first compound 0.316 µM
# [10] = second compound 0.1 µM, first compound 1 µM
# [11] = second compound 0.1 µM, first compound 3.16 µM
# [12] = second compound 0.1 µM, first compound 10 µM
# [13] = second compound 0.316 µM, first compound 0.0316 µM
# [14] = second compound 0.316 µM, first compound 0.1 µM
# [15] = second compound 0.316 µM, first compound 0.316 µM
# [16] = second compound 0.316 µM, first compound 1 µM
# [17] = second compound 0.316 µM, first compound 3.16 µM
# [18] = second compound 0.316 µM, first compound 10 µM
# [19] = second compound 1 µM, first compound 0.0316 µM
# [20] = second compound 1 µM, first compound 0.1 µM
# [21] = second compound 1 µM, first compound 0.316 µM
# [22] = second compound 1 µM, first compound 1 µM
# [23] = second compound 1 µM, first compound 3.16 µM
# [24] = second compound 1 µM, first compound 10 µM
# [25] = second compound 3.16 µM, first compound 0.0316 µM
# [26] = second compound 3.16 µM, first compound 0.1 µM
# [27] = second compound 3.16 µM, first compound 0.316 µM
# [28] = second compound 3.16 µM, first compound 1 µM
# [29] = second compound 3.16 µM, first compound 3.16 µM
# [30] = second compound 3.16 µM, first compound 10 µM
# [31] = second compound 10 µM, first compound 0.0316 µM
# [32] = second compound 10 µM, first compound 0.1 µM
# [33] = second compound 10 µM, first compound 0.316 µM
# [34] = second compound 10 µM, first compound 1 µM
# [35] = second compound 10 µM, first compound 3.16 µM
# [36] = second compound 10 µM, first compound 10 µM
# 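Note: spheroids exposed to the compounds for one week.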
# 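Throughout, for viability, T/C: percent of tumor spheroid viability relative to DMSO vehicle control wells.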
smiles,measurement,setting,value
CC(=O)O[C@H]1C(=O)[C@@]2(C)[C@H]([C@H](OC(=O)c3ccccc3)[C@]3(O)C[C@H](OC(=O)[C@H](O)[C@@H](NC(=O)c4ccccc4)c4ccccc4)C(C)=C1C3(C)C)[C@]1(OC(C)=O)CO[C@@H]1C[C@@H]2O + Cc1[nH]c2ccc(F)cc2c1-c1nc2c3cccnc3c3ncccc3c2[nH]1,IC50,second compound 0.0316 µM,148 nM
same,IC50,second compound 0.1 µM,176 nM
same,IC50,second compound 0.316 µM,240 nM
same,IC50,second compound 1 µM,117 nM
same,IC50,second compound 3.16 µM,< 31.6 nM
same,IC50,second compound 10 µM,< 31.6 nM
same,"viability, T/C",[1],100%
same,"viability, T/C",[2],67.2%
same,"viability, T/C",[3],16.9%
same,"viability, T/C",[4],3.76%
same,"viability, T/C",[5],1%
same,"viability, T/C",[6],0.76%
same,"viability, T/C",[7],90.5%
same,"viability, T/C",[8],77.2%
same,"viability, T/C",[9],21.5%
same,"viability, T/C",[10],5.55%
same,"viability, T/C",[11],0.13%
same,"viability, T/C",[12],0.12%
same,"viability, T/C",[13],78.4%
same,"viability, T/C",[14],70.6%
same,"viability, T/C",[15],43.7%
same,"viability, T/C",[16],5.11%
same,"viability, T/C",[17],0.81%
same,"viability, T/C",[18],0.08%
same,"viability, T/C",[19],52.8%
same,"viability, T/C",[20],58.1%
same,"viability, T/C",[21],16.4%
same,"viability, T/C",[22],1.87%
same,"viability, T/C",[23],0.21%
same,"viability, T/C",[24],0.41%
same,"viability, T/C",[25],3.83%
same,"viability, T/C",[26],6.17%
same,"viability, T/C",[27],8.48%
same,"viability, T/C",[28],0.24%
same,"viability, T/C",[29],0.53%
same,"viability, T/C",[30],0.46%
same,"viability, T/C",[31],1.53%
same,"viability, T/C",[32],1.57%
same,"viability, T/C",[33],4.36%
same,"viability, T/C",[34],0.21%
same,"viability, T/C",[35],0.84%
same,"viability, T/C",[36],1.07%
O=C(NO)c1cnc(N2CCN(S(=O)(=O)c3ccc4ccccc4c3)CC2)nc1 + CN(C)c1ccc(Nc2c3ccc(NC(=O)CCN4CCCC4)cc3nc3cc(NC(=O)CCN4CCCC4)ccc23)cc1,IC50,second compound 0.0316 µM,136 nM
same,IC50,second compound 0.1 µM,160 nM
same,IC50,second compound 0.316 µM,152 nM
same,IC50,second compound 1 µM,149 nM
same,IC50,second compound 3.16 µM,100 nM
same,IC50,second compound 10 µM,< 31.6 nM
same,"viability, T/C",[1],89.6%
same,"viability, T/C",[2],61.1%
same,"viability, T/C",[3],20%
same,"viability, T/C",[4],3.35%
same,"viability, T/C",[5],0.33%
same,"viability, T/C",[6],0.17%
same,"viability, T/C",[7],90.8%
same,"viability, T/C",[8],67.4%
same,"viability, T/C",[9],25.1%
same,"viability, T/C",[10],3.87%
same,"viability, T/C",[11],0.15%
same,"viability, T/C",[12],0.11%
same,"viability, T/C",[13],84.1%
same,"viability, T/C",[14],63.9%
same,"viability, T/C",[15],25.8%
same,"viability, T/C",[16],3.96%
same,"viability, T/C",[17],0.19%
same,"viability, T/C",[18],0.24%
same,"viability, T/C",[19],74.8%
same,"viability, T/C",[20],65.2%
same,"viability, T/C",[21],21.4%
same,"viability, T/C",[22],5.44%
same,"viability, T/C",[23],0.13%
same,"viability, T/C",[24],0.56%
same,"viability, T/C",[25],60.2%
same,"viability, T/C",[26],50.6%
same,"viability, T/C",[27],21.1%
same,"viability, T/C",[28],5.9%
same,"viability, T/C",[29],0.29%
same,"viability, T/C",[30],0.11%
same,"viability, T/C",[31],15.4%
same,"viability, T/C",[32],15.4%
same,"viability, T/C",[33],9.93%
same,"viability, T/C",[34],3.09%
same,"viability, T/C",[35],0.66%
same,"viability, T/C",[36],0.31%
COc1cccc2c1C(=O)c1c(O)c3c(c(O)c1C2=O)CC(O)(C(=O)CO)CC3OC1CC(N)C(O)C(C)O1 (stereo unspecified) + Cc1cnc(CNC(=O)c2c(=O)c3ccc(N4CCCN(C)CC4)nc3n3c2sc2ccccc23)cn1,IC50,second compound 0.0316 µM,60.1 nM
same,IC50,second compound 0.1 µM,< 31.6 nM
same,IC50,second compound 0.316 µM,< 31.6 nM
same,IC50,second compound 1 µM,< 31.6 nM
same,IC50,second compound 3.16 µM,< 31.6 nM
same,IC50,second compound 10 µM,< 31.6 nM
same,"viability, T/C",[1],71%
same,"viability, T/C",[2],30.1%
same,"viability, T/C",[3],21.9%
same,"viability, T/C",[4],4.72%
same,"viability, T/C",[5],0.41%
same,"viability, T/C",[6],2.74%
same,"viability, T/C",[7],50.4%
same,"viability, T/C",[8],27.2%
same,"viability, T/C",[9],20.9%
same,"viability, T/C",[10],10.3%
same,"viability, T/C",[11],0.59%
same,"viability, T/C",[12],2.89%
same,"viability, T/C",[13],28.2%
same,"viability, T/C",[14],23.7%
same,"viability, T/C",[15],18.5%
same,"viability, T/C",[16],8.18%
same,"viability, T/C",[17],0.4%
same,"viability, T/C",[18],1.91%
same,"viability, T/C",[19],19.8%
same,"viability, T/C",[20],25.2%
same,"viability, T/C",[21],13.7%
same,"viability, T/C",[22],3.8%
same,"viability, T/C",[23],0.09%
same,"viability, T/C",[24],0.32%
same,"viability, T/C",[25],26.7%
same,"viability, T/C",[26],25.6%
same,"viability, T/C",[27],15.1%
same,"viability, T/C",[28],0.12%
same,"viability, T/C",[29],0.12%
same,"viability, T/C",[30],0.15%
same,"viability, T/C",[31],0.07%
same,"viability, T/C",[32],0.14%
same,"viability, T/C",[33],0.22%
same,"viability, T/C",[34],0.15%
same,"viability, T/C",[35],0.2%
same,"viability, T/C",[36],0.21%
